# Like-named read-outs stand apart in the source and are kept apart here.
# Key:
# KDR (h) = KDR (h) (Homo sapiens, UniProt P35968); assay: KDR (VEGFR2) (enzymatic assay), TR-FRET; format: biochemical; settings: average values if tested multiple times, read-out: VEGFR 2 (KDR) pIC50 (converted)
# Method: KDR (VEGFR2) (Enzymatic Assay)
# In a final reaction volume of 30 μL, KDR (h) (150 ng/ml) was incubated with 50 mM HEPES pH 7.5, 6 mM MnCl2, 1 mM DTT, 0.1 mM Na3VO4, 0.01% Triton-X-100, 500 nM Btn-Flt3 and 3 μM ATP in the presence of compound (1% DMSO final). After incubation for 120 minutes at room temperature the reaction was stopped with 2.27 nM EU-anti P-Tyr, 7 mM EDTA, 31.25 nM SA-XL-665 and 0.02% BSA which was present for 60 minutes at room temperature. Time-Resolved Fluorescence Resonance Energy Transfer (TR-FRET) signal (ex340 nm. Em 620 nm, em 655 nm) was measured afterwards and results are expressed in RFU (Relative Fluorescence Units).
# [1] = biological target: Ba/F3-FGFR4-transfected cells (Homo sapiens, UniProt P22455); assay: Ba/F3-FGFR4 cellular proliferation assay, Alamar Blue; format: cell-based
# Method: Ba/F3-FGFR4 (Cellular Proliferation Assay)
# (§1) In a 384 well plate, 100 n1 of compound dilution in DMSO was sprayed before adding 50 μl cell culture medium (phenol red free RPMI-1640, 10% FBS, 2 mM L-Glutamine and 50 μg/ml Gentamycin) containing 20000 cells per well of Ba/F3-FGFR4-transfected cells. Cells were put in an incubator at 37° C. and 5% CO2. After 24 hours, 10 μl of Alamar Blue solution (0.5 mM K3Fe(CN)6, 0.5 mM K4Fe(CN)6, 0.15 mM Resazurin and 100 mM Phosphate Buffer) was added to the wells, incubated for 4 hours at 37° C. and 5% CO2 before RFU's (Relative Fluorescence Units) (ex. 540 nm., em. 590 nm.) were measured in a fluororescence plate reader.
# FGFR3 (h) = FGFR3 (h) (Homo sapiens, UniProt P22607); assay: FGFR3 (enzymatic assay), TR-FRET; format: biochemical; settings: average values if tested multiple times, read-out: FGFR 3 pIC50 (converted)
# Description: Time-Resolved Fluorescence Resonance Energy Transfer (TR-FRET) signal (ex340 nm.
# FGFR1 (h) = FGFR1 (h) (Homo sapiens, UniProt P11362); assay: FGFR1 (enzymatic assay), TR-FRET; format: biochemical; settings: average values if tested multiple times, read-out: FGFR 1 pIC50 (converted)
# [2] = biological target: T1, Ba/F3-FGFR1-transfected cells (Homo sapiens, UniProt P11362); assay: Ba/F3-FGFR1 (minus IL3) cellular proliferation assay, Alamar Blue; format: cell-based
# T1 construct: BAF3-FGFR1 (MIN IL3) pIC50; other: minus IL3
# Method: (§2) Ba/F3-FGFR1 (Minus IL3 or Plus IL3) (Cellular Proliferation Assay)
# as §1, with “nl” for “n1”, “Ba/F3-FGFR1-transfected” for “Ba/F3-FGFR4-transfected”
# [3] = test system: Ba/F3-FGFR1-transfected cells; assay: Ba/F3-FGFR1 (plus IL3) cellular proliferation assay, counterscreen with 10 ng/ml murine IL3; format: cell-based; settings: read-out: BAF3-FGFR1 (PLUS IL3) pIC50 (converted)
# Method: as §2
# as §1, with “nl” for “n1”, “Ba/F3-FGFR1-transfected” for “Ba/F3-FGFR4-transfected”
# (§3) As a counterscreen the same experiment was performed in the presence of 10 ng/ml murine IL3.
# FGFR4 (h) = FGFR4 (h) (Homo sapiens, UniProt P22455); assay: FGFR4 (enzymatic assay), TR-FRET; format: biochemical; settings: FGFR 4 pIC50, enzymatic assay; average values if tested multiple times
# [4] = test system: Ba/F3-FGFR3-transfected cells; assay: Ba/F3-FGFR3 (plus IL3) cellular proliferation assay, counterscreen with 10 ng/ml murine IL3; format: cell-based; settings: read-out: BAF3-FGFR3 (PLUS IL3) pIC50 (converted)
# Method: (§4) Ba/F3-FGFR3 (Minus IL3 or Plus IL3) (Cellular Proliferation Assay)
# as §1, with “nl” for “n1”, “Ba/F3-FGFR3-transfected” for “Ba/F3-FGFR4-transfected”
# as §3
# [5] = biological target: T2, Ba/F3-KDR-transfected cells (Homo sapiens, UniProt P35968); assay: Ba/F3-KDR (minus IL3) cellular proliferation assay, Alamar Blue; format: cell-based
# T2 construct: BAF3-KDR (MIN IL3) pIC50; other: minus IL3
# Method: Ba/F3-KDR (Minus IL3 or Plus IL3) (Cellular Proliferation Assay)
# as §1, with “Ba/F3-KDR-transfected” for “Ba/F3-FGFR4-transfected”, “reader. […]” for “reader.”
# [6] = biological target: T3, Ba/F3-FGFR3-transfected cells (Homo sapiens, UniProt P22607); assay: Ba/F3-FGFR3 (minus IL3) cellular proliferation assay, Alamar Blue; format: cell-based
# T3 construct: BAF3-FGFR3 (MIN IL3) pIC50; other: minus IL3
# Method: as §4
# as §1, with “nl” for “n1”, “Ba/F3-FGFR3-transfected” for “Ba/F3-FGFR4-transfected”, “reader. […]” for “reader.”
# FGFR2 (h) = FGFR2 (h) (Homo sapiens, UniProt P21802); assay: FGFR2 (enzymatic assay), TR-FRET; format: biochemical; settings: average values if tested multiple times
# Method: In a final reaction volume of 30 μL, FGFR2 (h) (150 ng/ml) was incubated with 50 mM HEPES pH 7.5, 6 mM MnCl2, 1 mM DTT, 0.1 mM Na3VO4, 0.01% Triton-X-100, 500 nM Btn-Flt3 and 0.4 μM ATP in the presence of compound (1% DMSO final).
# [7] = enzymatic assay, read-out: FGFR 2 pIC50 (converted)
# [8] = plus IL3 (10 ng/ml murine IL3, counterscreen)
# T3 sequence (P22607 whole entry, change not shown): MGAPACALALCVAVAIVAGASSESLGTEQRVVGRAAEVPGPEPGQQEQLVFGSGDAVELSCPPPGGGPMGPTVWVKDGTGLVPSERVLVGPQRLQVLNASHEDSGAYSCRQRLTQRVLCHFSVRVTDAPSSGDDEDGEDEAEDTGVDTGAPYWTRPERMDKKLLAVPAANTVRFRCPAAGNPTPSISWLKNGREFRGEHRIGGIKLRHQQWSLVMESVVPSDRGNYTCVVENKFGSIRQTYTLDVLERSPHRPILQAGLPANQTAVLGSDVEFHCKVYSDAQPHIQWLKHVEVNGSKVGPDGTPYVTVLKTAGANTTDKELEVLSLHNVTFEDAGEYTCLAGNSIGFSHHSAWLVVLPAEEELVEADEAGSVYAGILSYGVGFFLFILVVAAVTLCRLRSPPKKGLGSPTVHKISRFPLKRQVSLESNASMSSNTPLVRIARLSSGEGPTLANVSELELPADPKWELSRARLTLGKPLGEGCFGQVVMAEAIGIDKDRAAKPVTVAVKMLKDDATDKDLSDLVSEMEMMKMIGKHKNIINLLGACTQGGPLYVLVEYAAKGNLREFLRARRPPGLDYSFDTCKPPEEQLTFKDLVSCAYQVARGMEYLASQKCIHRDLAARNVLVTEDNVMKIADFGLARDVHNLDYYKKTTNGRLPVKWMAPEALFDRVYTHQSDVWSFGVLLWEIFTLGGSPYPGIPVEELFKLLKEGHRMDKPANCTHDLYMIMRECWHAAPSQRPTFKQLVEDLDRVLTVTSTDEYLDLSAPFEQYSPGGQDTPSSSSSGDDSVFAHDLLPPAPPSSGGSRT
# Chain of KDR (h) (P35968 20-1356): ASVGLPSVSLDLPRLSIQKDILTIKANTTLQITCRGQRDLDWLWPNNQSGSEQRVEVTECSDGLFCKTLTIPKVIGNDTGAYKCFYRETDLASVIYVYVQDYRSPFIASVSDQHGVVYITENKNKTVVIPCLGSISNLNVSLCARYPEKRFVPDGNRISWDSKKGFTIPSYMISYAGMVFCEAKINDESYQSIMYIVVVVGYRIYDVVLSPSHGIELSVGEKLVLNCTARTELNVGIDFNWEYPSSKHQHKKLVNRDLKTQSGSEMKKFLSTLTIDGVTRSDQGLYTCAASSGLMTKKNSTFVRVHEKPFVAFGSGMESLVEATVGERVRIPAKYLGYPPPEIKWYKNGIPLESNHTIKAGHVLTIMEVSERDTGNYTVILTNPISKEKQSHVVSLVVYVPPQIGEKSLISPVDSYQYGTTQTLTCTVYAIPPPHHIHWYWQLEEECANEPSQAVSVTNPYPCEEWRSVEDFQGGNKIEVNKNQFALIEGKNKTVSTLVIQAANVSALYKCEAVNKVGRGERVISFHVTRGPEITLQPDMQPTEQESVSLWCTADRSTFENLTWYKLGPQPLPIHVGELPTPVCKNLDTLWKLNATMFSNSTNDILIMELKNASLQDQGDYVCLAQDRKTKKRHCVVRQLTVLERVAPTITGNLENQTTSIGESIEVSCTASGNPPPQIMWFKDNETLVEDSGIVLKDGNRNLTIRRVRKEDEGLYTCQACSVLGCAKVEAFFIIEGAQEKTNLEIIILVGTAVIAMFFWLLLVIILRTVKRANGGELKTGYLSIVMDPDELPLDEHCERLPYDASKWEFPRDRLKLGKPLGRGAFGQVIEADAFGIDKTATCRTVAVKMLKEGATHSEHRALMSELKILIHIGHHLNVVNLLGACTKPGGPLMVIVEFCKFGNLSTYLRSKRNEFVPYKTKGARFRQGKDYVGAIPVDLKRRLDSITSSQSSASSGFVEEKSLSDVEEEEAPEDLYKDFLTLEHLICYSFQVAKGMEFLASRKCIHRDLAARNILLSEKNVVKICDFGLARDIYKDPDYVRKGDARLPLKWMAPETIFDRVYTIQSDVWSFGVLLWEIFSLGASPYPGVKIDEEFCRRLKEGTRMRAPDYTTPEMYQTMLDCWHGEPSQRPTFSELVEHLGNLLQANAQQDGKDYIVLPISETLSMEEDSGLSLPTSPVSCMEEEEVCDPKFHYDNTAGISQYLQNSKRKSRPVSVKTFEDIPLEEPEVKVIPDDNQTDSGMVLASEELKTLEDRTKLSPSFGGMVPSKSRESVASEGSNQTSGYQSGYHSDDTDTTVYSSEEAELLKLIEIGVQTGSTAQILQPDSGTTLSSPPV
# Chain of Ba/F3-FGFR4-transfected cells (P22455 whole entry, change not shown): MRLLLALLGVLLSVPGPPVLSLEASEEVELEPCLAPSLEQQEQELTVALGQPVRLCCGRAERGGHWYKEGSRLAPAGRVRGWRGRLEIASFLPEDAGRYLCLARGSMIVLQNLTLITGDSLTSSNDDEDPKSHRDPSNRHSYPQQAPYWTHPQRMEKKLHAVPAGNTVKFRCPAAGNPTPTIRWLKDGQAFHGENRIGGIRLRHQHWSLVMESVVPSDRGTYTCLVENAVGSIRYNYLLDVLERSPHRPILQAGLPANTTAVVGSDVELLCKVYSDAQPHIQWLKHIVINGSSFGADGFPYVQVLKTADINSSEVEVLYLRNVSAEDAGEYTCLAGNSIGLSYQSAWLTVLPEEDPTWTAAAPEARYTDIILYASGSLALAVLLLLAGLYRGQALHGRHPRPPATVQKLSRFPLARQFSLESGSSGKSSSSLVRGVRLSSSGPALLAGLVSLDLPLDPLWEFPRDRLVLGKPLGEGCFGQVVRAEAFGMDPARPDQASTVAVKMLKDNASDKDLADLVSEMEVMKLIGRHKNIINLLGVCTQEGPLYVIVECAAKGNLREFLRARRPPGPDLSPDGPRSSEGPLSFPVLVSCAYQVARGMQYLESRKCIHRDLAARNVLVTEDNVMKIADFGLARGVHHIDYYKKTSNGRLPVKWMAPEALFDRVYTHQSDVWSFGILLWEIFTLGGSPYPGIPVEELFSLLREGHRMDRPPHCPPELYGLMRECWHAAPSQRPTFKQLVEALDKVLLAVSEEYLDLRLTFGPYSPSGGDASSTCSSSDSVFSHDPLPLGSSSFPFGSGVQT
# Chain of FGFR2 (h) (P21802 22-821): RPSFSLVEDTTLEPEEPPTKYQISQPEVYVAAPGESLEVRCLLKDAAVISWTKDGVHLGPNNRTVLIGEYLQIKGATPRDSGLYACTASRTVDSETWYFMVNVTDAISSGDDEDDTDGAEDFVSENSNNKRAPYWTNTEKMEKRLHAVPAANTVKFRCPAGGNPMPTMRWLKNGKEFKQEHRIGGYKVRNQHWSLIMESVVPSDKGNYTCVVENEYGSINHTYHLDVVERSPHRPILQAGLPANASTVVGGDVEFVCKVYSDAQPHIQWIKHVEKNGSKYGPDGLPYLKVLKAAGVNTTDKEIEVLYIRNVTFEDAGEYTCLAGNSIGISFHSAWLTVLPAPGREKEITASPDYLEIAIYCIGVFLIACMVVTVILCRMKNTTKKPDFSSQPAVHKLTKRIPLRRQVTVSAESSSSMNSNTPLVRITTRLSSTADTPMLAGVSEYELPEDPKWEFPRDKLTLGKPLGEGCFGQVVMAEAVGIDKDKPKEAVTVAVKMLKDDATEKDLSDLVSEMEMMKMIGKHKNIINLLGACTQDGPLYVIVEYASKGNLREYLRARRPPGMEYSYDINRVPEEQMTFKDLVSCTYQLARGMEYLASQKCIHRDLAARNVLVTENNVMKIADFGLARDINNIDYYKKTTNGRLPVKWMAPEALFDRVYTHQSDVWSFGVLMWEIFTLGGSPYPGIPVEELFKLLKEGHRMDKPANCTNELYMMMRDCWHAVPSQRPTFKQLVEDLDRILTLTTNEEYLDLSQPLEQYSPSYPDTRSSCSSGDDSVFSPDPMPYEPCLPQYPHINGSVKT
# Chain of FGFR4 (h) (P22455 22-802): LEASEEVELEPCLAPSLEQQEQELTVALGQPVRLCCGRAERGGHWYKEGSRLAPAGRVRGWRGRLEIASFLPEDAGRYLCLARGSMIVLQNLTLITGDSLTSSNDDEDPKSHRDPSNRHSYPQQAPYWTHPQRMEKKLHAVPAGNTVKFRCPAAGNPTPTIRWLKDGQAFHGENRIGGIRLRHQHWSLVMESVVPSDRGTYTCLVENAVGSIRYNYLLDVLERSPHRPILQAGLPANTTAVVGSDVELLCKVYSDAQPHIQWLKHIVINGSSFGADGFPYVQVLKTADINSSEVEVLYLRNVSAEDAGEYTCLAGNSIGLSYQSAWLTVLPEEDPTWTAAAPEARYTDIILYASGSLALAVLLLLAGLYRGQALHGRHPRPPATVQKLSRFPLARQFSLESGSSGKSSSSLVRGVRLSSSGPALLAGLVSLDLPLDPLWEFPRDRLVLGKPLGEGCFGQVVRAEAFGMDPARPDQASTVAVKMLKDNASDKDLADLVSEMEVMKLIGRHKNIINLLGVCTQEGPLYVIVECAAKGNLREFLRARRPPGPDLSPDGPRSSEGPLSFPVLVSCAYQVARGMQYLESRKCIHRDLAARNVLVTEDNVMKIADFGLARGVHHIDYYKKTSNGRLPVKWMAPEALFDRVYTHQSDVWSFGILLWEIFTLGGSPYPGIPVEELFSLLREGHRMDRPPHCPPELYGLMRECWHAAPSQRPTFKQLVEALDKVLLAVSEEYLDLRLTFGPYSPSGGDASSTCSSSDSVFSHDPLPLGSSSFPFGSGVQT
Compound,IC50 (KDR (h)),BAF3-FGFR4 pIC50 [1],IC50 (FGFR3 (h)),IC50 (FGFR1 (h)),BAF3-FGFR1 (MIN IL3) pIC50 [2],IC50 [3],IC50 (FGFR4 (h)),IC50 [4],BAF3-KDR (MIN IL3) pIC50 [5],BAF3-FGFR3 (MIN IL3) pIC50 [6],"IC50 (FGFR2 (h); FGFR 2 pIC50, enzymatic assay)",IC50 (FGFR2 (h); [7]),"IC50 [3, 8]","IC50 [4, 8]"
COc1cc(OC)cc(N(CCNC(C)C)c2ccc3ncc(-c4cnn(C)c4)nc3n2)c1 [Compound 1],251 nM,~7.06,5.01 nM,5.01 nM,8.5,> 10000 nM,25.1 nM,> 10000 nM,5.6,8.1,25.1 nM,–,–,–
COc1cc(OC)c(F)c(N(CCNC(C)C)c2ccc3ncc(-c4cnn(C)c4)nc3n2)c1 [Compound 2],79.4 nM,7.64,3.16 nM,2 nM,8.3,> 10000 nM,7.94 nM,> 10000 nM,6.2,8.0,–,5.01 nM,–,–
COc1cc(OC)c(F)c(/N=c2\ccc3ncc(-c4cnn(C)c4)nc3n2CCNC(C)C)c1F [Compound 6],50.1 nM,–,3.16 nM,1 nM,8.0,–,5.01 nM,–,5.7,7.6,–,5.01 nM,> 10000 nM,> 10000 nM
COc1cc(OC)cc(N(CC(O)C(F)(F)F)c2ccc3ncc(-c4cnn(C)c4)nc3n2)c1 (centres unmarked) [Compound 8],126 nM,6.66,2 nM,1.26 nM,7.6,–,3.16 nM,–,5.3,7.6,–,6.31 nM,> 10000 nM,> 10000 nM
COc1cc(OC)c(F)c(N(Cc2ncccn2)c2ccc3ncc(-c4cnn(C)c4)nc3n2)c1F [Compound 11],398 nM,~7.02,7.08 nM,50.1 nM,7.4,–,20 nM,–,6.3,–,–,50.1 nM,> 10000 nM,> 10000 nM
COc1cc(OC)cc(N(Cc2ncccn2)c2ccc3ncc(-c4cnn(C)c4)nc3n2)c1 [Compound 12],39.8 nM,6.26,2.51 nM,1.58 nM,7.3,–,12.6 nM,–,5.5,7.1,–,3.98 nM,> 10000 nM,> 10000 nM
COc1cc(OC)cc(N(CCCO)c2ccc3ncc(-c4cnn(C)c4)nc3n2)c1 [Compound 18],50.1 nM,~6.64,1 nM,2 nM,7.4,–,3.16 nM,–,5.5,7.3,–,3.98 nM,> 10000 nM,> 10000 nM
COc1cc(/N=c2\ccc3ncc(-c4cnn(C)c4)nc3n2CCCO)cc(OC)c1 [Compound 19],5.01 nM,–,0.316 nM,0.398 nM,8.0,–,0.398 nM,–,6.4,8.0,–,1.26 nM,> 10000 nM,> 10000 nM
COc1cc(OC)cc(N(CCO)c2ccc3ncc(-c4cnn(C)c4)nc3n2)c1 [Compound 21],63.1 nM,6.69,0.794 nM,2 nM,7.3,–,5.01 nM,–,5.6,7.3,–,3.98 nM,> 10000 nM,> 10000 nM
COc1cc(OC)c(F)c(N(Cc2ncc[nH]2)c2ccc3ncc(-c4cnn(C)c4)nc3n2)c1F [Compound 25],79.4 nM,~8.23,2.51 nM,7.94 nM,8.8,–,3.55 nM,–,6.7,8.5,–,14.1 nM,6310 nM,> 10000 nM
